# Assay results reported in patent publication US20100144712A1 (priority 2007, published 2010).
# Legend:
# Type in all cases: cell-based
# [1] = system: Candida albican ATCC 64550; test: In vitro antifungal activity (MIC80), Candida albican ATCC 64550; conditions: Candida, ATCC64550; Table 2, 64550; read-out: Minimal inhibitory concentration (MIC80)
# How it was run: (§1)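 MIC80 is the lowest concentration that cuts growth by 80% compared with untreated cells, with alamarBlue as the growth read-out. Compounds were serially diluted in RPMI 1640 (0.25–256 […]; DMSO 2% v/v final) and added to 1.0×10^3–5.0×10^3 CFU/ml yeast suspensions, in duplicate runs.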
# [2] = system: Candida albican ATCC MYA-573; test: In vitro antifungal activity (MIC80), Candida albican ATCC MYA-573; conditions: Candida; Table 2, MYA 573; read-out: Minimal inhibitory concentration (MIC80)
# How it was run: as §1
# [3] = system: Candida albican ATCC MYA-576; test: In vitro antifungal activity (MIC80), Candida albican ATCC MYA-576; conditions: Candida; Table 2, MYA 576; read-out: Minimal inhibitory concentration (MIC80)
# How it was run: as §1
# [4] = system: Candida albican ATCC 96901; test: In vitro antifungal activity (MIC80), Candida albican ATCC 96901; conditions: Candida, ATCC96901; Table 2, ATCC 96901; read-out: Minimal inhibitory concentration (MIC80)
# How it was run: as §1
# [5] = system: Candida albican ATCC 204276; test: In vitro antifungal activity (MIC80), Candida albican ATCC 204276; conditions: ATCC204276, Table 2, 204276, read-out: Minimal inhibitory concentration (MIC80)
# Experimental: (§2) In vitro antifungal activities of the inventive antifungal compounds were evaluated using test strains including Candida albican (ATCC 90873, 204276, 62342, 64124, 64550, 96901, MYA-573, MYA-574, MYA-575, MYA-576, MYA-1003) and Aspergillus fumigatus (ATCC 16424). Test samples and positive control samples were prepared by dissolving the inventive compounds and comparative compounds, i.e., amphotericin B, fluconazole and itraconazole, in DMSO, respectively, and each successively diluted with medium to obtain test and positive control solutions having test compound concentrations of 0.125 μg/ml to a maximum concentration not generating turbidity. Minimal inhibitory concentration (MIC80) of each compound was determined as the lowest concentration of the test compounds required to reduce growth by 80% relative to a control strain not treated.
# (§3) 1) Test strain: Candida albican ATCC 90873, 204276, 62342, 64124, 64550, 96901, MYA-573, MYA-574, MYA-575, MYA-576, MYA-1003, and Aspergillus fumigatus ATCC 16424 were commercially obtained from The American Type Culture Collection (ATCC) and subcultured in CHEMON Co. Ltd. (amphotericin B was commercially purchased from Sigma, and fluconazole and itraconazole were prepared according to methods described in British Patent No. 2,099,818; and U.S. Pat. No. 4,267,179, respectively).
# (§4) 2) Medium and culture condition: Candida albican was cultured in Sabourad Dextrose Agar, YM Agar or Potato Dextrose Agar according to ATCC information at a temperature of 37° C., 35° C., 30° C. or 25° C. Aspergillus fumigatus was cultured in Malt Extract Agar or Potato Dextrose Agar at a temperature ranging from 24 to 27° C.
# (§5) 3) Preparation of test samples: the inventive compounds and comparative compounds were each diluted with DMSO to obtain 1 to 2 ml of a test sample in a concentration of 100-folds of the determining maximum concentration (256 μg/ml).
# (§6) The test samples were each successively diluted with RPMI 1640 to obtain test solutions having concentrations of […] in a 12×75 mm sterilized disposable culture tube. The final concentration of DMSO was adjusted to […] (v/v).
# (§7) 5) Preparation of strain solution and inoculation
# (§8) Candida albican strains were each subcultured in Sabourad Dextrose Agar, YM Agar or Potato Dextrose Agar medium at 35° C. for 2˜3 days. In the case of yeasts, a single colony was taken from prominent colonies and suspended in 0.85% sterile physiological saline solution and the turbidity of the suspension was adjusted to 80˜82% at 530 nm, and then diluted 50-fold with RPMI 1640 medium to 1.0×10^3˜5.0×10^3 CFU/ml. The turbidity of fungi was adjusted to 80˜82% and the suspension was diluted 50-fold to […]. Aspergillus fumigatus strains were subcultured in Malt Extract Agar for 7˜10 days, and a single colony was taken from prominent colonies and suspended in 0.85% sterile physiological saline solution and the suspension was adjusted to 0.108 at 530 nm, and then diluted 1000-fold with RPMI 1640 medium to 0.4×10^2˜5×10^4 CFU/ml. The turbidity of fungi was adjusted to 80˜82% and the suspension was diluted 50-fold to 0.4102˜0.5104 CFU/ml.
# (§9) The strain solutions thus obtained were each seeded into a sterilized 96-well microplate, 0.1 ml of each test solution were added thereto, and […] of alamarblue was treated to each well (Biosource, #DAL1100). This procedure was repeated 2 times.
# (§10) Minimal inhibitory concentration (MIC80) of each compound was determined as the lowest concentration of the test compounds required to reduce growth by 80% relative to a control strain not treated.
# [6] = system: Aspergillus fumigatus (ATCC 16424); test: In vitro antifungal activity (MIC80), Aspergillus fumigatus ATCC 16424; conditions: Aspergillus fumigatus, ATCC16424, Table 2, ATCC 16424; read-out: Minimal inhibitory concentration (MIC80)
# Experimental: as §2, §3, §4, §5, §6, §7, §8, §9, §10
# MIC80 of each of the compounds of which antifungal activities can be confirmed by Table 2 was determined using other test strains, i.e., Aspergillus fumigatus ATCC 16424 and MYA-1163, Aspergillus terreus ATCC 28301, Aspergillus flavus ATCC MYA-1004, and Aspergillus niger ATCC 9142.
# [7] = system: Candida albican ATCC MYA-574; test: In vitro antifungal activity (MIC80), Candida albican ATCC MYA-574; conditions: Candida; Table 2, MYA 574; read-out: Minimal inhibitory concentration (MIC80)
# How it was run: as §1
# [8] = system: Candida albican ATCC 90873; test: In vitro antifungal activity (MIC80), Candida albican ATCC 90873; conditions: Candida, ATCC90873; Table 2, ATCC 90873; read-out: Minimal inhibitory concentration (MIC80)
# How it was run: as §1
# [9] = system: Candida albican ATCC 64124; test: In vitro antifungal activity (MIC80), Candida albican ATCC 64124; conditions: Candida, ATCC64124; Table 2, 64124; read-out: Minimal inhibitory concentration (MIC80)
# How it was run: as §1
# [10] = system: Candida albican ATCC MYA-1003; test: In vitro antifungal activity (MIC80), Candida albican ATCC MYA-1003; conditions: Candida; Table 2, MYA 1003; read-out: Minimal inhibitory concentration (MIC80)
# How it was run: as §1
# [11] = system: Candida albican ATCC MYA-575; test: In vitro antifungal activity (MIC80), Candida albican ATCC MYA-575; conditions: Candida; Table 2, MYA 575; read-out: Minimal inhibitory concentration (MIC80)
# How it was run: as §1
# [12] = system: Candida albican ATCC 62342; test: In vitro antifungal activity (MIC80), Candida albican ATCC 62342; conditions: Candida, ATCC62342; Table 2, 62342; read-out: Minimal inhibitory concentration (MIC80)
# How it was run: as §1
Compound,MIC80 [1] [µg/mL],MIC80 [2] [µg/mL],MIC80 [3] [µg/mL],MIC80 [4] [µg/mL],MIC80 [5] [µg/mL],MIC80 [6] [µg/mL],MIC80 [7] [µg/mL],MIC80 [8] [µg/mL],MIC80 [9] [µg/mL],MIC80 [10] [µg/mL],MIC80 [11] [µg/mL],MIC80 [12] [µg/mL]
"C[C@@H](N1CCN(c2nc3ccccc3n2C)CC1)[C@](O)(Cn1cncn1)c1ccc(F)cc1F [Example 3, (2R,3R)-2-(2,4-difluorophenyl)-3-(4-(1-methyl-1H-benzoimidazol-2-yl)piperazin-1-yl)-1-(1H-1,2,4-triazol-1-yl)butan-2-ol]",2,4,0.125,4,0.125,1,16,0.125,16,> 128,16,8
"C[C@@H](N1CCN(c2ccccn2)CC1)[C@](O)(Cn1cncn1)c1ccc(F)cc1F [Example 16, (2R,3R)-2-(2,4-difluorophenyl)-3-(4-(pyridin-2-yl)piperazin-1-yl)-1-(1H-1,2,4-triazol-1-yl)butan-2-ol]",1,0.5,0.125,16,0.125,16,32,0.125,8,64,32,1
"C[C@@H](N1CCN(c2ccc(C#N)nc2)CC1)[C@](O)(Cn1cncn1)c1ccc(F)cc1F [Example 17, 5-(4-((2R,3R)-3-(2,4-difluorophenyl)-3-hydroxy-4-(1H-1,2,4-triazol-1-yl)butan-2-yl)piperazin-1-yl)picolinonitrile]",1,0.25,0.125,8,0.125,8,64,0.125,16,32,64,2
"C[C@@H](N1CCN(c2ncccn2)CC1)[C@](O)(Cn1cncn1)c1ccc(F)cc1F [Example 18, (2R,3R)-2-(2,4-difluorophenyl)-3-(4-(pyrimidin-2-yl)piperazin-1-yl)-1-(1H-1,2,4-triazol-1-yl)butan-2-ol]",2,1,0.125,8,0.125,0.125,> 128,0.125,16,> 128,> 128,4
"C[C@@H](N1CCN(c2ccc3ccccc3n2)CC1)[C@](O)(Cn1cncn1)c1ccc(F)cc1F [Example 19, (2R,3R)-2-(2,4-difluorophenyl)-3-(4-(quinolin-2-yl)piperazin-1-yl)-1-(1H-1,2,4-triazol-1-yl)butan-2-ol]",0.5,0.25,0.125,0.5,0.125,0.125,> 128,0.125,4,> 128,> 128,0.25
"C[C@@H](N1CCN(Cc2ccco2)CC1)[C@](O)(Cn1cncn1)c1ccc(F)cc1F [Example 43, (2R,3R)-2-(2,4-difluorophenyl)-3-(4-((furan-2-yl)methyl)piperazin-1-yl)-1-(1H-1,2,4-triazol-1-yl)butan-2-ol]",16,4,0.25,64,0.125,64,128,0.125,64,> 128,128,4
"C[C@@H](N1CCN(Cc2cccs2)CC1)[C@](O)(Cn1cncn1)c1ccc(F)cc1F [Example 44, (2R,3R)-2-(2,4-difluorophenyl)-3-(4-((thiophen-2-yl)methyl)piperazin-1-yl)-1-(1H-1,2,4-triazol-1-yl)butan-2-ol]",4,2,0.125,64,0.125,0.5,32,0.125,32,> 128,32,4
